Reference: ChEMBL document CHEMBL5058645, “Data for DCP probe JNJ-6204” (2022)

How the values were obtained:
[1] = biological target: Bone morphogenetic protein receptor type-1B (Homo sapiens) (UniProt O00238); assay: ALK6(h) Kinase panel; conditions: Compound concentration 1.0 uM, tested as the 2H-labelled form
[2] = biological target: 5'-AMP-activated protein kinase catalytic subunit alpha-1 (Homo sapiens) (UniProt Q13131); assay: AMPKalpha1(h) Kinase panel; conditions: Compound concentration 1.0 uM, tested as the 2H-labelled form
[3] = biological target: Cyclin-dependent kinase 3 (Homo sapiens) (UniProt Q00526); assay: CDK3/cyclinE(h) Kinase panel; conditions: Compound concentration 1.0 uM, tested as the 2H-labelled form
[4] = biological target: Cyclin-dependent kinase 5 (Homo sapiens) (UniProt Q00535); assay: CDK5/p25(h) Kinase panel; conditions: Compound concentration 1.0 uM, tested as the 2H-labelled form
[5] = biological target: Cyclin-dependent kinase 9 (Homo sapiens) (UniProt P50750); assay: CDK9/cyclin T1(h) Kinase panel; conditions: Compound concentration 1.0 uM, tested as the 2H-labelled form
[6] = biological target: Cyclin-dependent kinase 14 (Homo sapiens) (UniProt O94921); assay: CDK14/cyclinY(h) Kinase panel; conditions: Compound concentration 1.0 uM, tested as the 2H-labelled form
Chain of Cyclin-dependent kinase 14 (Homo sapiens) (O94921 whole entry): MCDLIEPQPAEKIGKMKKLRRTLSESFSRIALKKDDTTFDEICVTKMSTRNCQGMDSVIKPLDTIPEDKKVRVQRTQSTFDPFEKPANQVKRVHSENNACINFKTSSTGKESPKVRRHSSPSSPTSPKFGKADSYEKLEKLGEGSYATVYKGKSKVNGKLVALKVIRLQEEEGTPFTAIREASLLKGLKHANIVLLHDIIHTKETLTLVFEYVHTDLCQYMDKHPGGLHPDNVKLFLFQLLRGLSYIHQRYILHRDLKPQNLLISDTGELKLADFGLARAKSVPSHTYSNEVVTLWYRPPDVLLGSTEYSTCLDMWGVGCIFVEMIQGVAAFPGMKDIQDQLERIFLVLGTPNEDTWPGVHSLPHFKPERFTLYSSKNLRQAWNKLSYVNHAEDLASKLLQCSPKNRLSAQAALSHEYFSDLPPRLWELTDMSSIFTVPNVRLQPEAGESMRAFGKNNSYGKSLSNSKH

[7] = biological target: Cyclin-dependent kinase 16 (Homo sapiens) (UniProt Q00536); assay: CDK16/cyclinY(h) Kinase panel; conditions: Compound concentration 1.0 uM, tested as the 2H-labelled form
[8] = biological target: Cyclin-dependent kinase-like 1 (Homo sapiens) (UniProt Q00532); assay: CDKL1(h) Kinase panel; conditions: Compound concentration 1.0 uM, tested as the 2H-labelled form
[9] = biological target: Cyclin-dependent kinase-like 4 (Homo sapiens) (UniProt Q5MAI5); assay: CDKL4(h) Kinase panel; conditions: Compound concentration 1.0 uM, tested as the 2H-labelled form
Homo sapiens = species on record: Homo sapiens; assay: CK2(h) Kinase panel; conditions: Compound concentration 1.0 uM, tested as the 2H-labelled form
[10] = biological target: Ephrin type-B receptor 3 (Homo sapiens) (UniProt P54753); assay: EphB3(h) Kinase panel; conditions: Compound concentration 1.0 uM, tested as the 2H-labelled form
Chain of Ephrin type-B receptor 3 (Homo sapiens) (P54753 whole entry): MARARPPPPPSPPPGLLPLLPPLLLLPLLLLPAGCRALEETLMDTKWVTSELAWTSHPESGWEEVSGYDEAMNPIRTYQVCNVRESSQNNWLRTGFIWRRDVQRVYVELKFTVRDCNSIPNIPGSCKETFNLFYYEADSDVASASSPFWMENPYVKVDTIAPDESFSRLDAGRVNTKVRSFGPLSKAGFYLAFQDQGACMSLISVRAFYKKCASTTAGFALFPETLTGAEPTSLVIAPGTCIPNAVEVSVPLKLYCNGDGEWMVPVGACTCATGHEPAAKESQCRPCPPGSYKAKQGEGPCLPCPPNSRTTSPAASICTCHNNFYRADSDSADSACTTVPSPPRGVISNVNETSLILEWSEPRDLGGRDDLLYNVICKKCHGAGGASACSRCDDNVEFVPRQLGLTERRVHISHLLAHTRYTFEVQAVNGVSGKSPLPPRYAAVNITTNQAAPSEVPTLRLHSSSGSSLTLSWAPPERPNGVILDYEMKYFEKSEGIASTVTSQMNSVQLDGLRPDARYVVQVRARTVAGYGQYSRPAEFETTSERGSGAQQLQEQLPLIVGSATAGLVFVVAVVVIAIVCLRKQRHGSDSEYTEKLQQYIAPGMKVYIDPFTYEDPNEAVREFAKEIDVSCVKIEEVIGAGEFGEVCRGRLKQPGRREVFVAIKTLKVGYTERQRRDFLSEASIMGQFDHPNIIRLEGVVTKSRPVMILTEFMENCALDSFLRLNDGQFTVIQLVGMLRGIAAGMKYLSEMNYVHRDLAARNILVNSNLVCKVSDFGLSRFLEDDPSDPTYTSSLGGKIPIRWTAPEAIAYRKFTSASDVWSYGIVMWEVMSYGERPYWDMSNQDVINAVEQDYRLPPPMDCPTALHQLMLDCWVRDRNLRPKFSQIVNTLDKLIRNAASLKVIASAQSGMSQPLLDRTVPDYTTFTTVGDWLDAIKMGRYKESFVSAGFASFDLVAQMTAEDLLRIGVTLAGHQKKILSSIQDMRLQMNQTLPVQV

[11] = biological target: Focal adhesion kinase 1 (Homo sapiens) (UniProt Q05397); assay: FAK(h) Kinase panel; conditions: Compound concentration 1.0 uM, tested as the 2H-labelled form
[12] = biological target: Vascular endothelial growth factor receptor 3 (Homo sapiens) (UniProt P35916); assay: Flt4(h) Kinase panel; conditions: Compound concentration 1.0 uM, tested as the 2H-labelled form
[13] = biological target: Homeodomain-interacting protein kinase 1 (Homo sapiens) (UniProt Q86Z02); assay: HIPK1(h) Kinase panel; conditions: Compound concentration 1.0 uM, tested as the 2H-labelled form
[14] = biological target: Homeodomain-interacting protein kinase 2 (Homo sapiens) (UniProt Q9H2X6); assay: HIPK2(h) Kinase panel; conditions: Compound concentration 1.0 uM, tested as the 2H-labelled form
[15] = biological target: Serine/threonine-protein kinase/endoribonuclease IRE1 (Homo sapiens) (UniProt O75460); assay: IRE1(h) Kinase panel; conditions: Compound concentration 1.0 uM, tested as the 2H-labelled form
[16] = biological target: Insulin receptor-related protein (Homo sapiens) (UniProt P14616); assay: IRR(h) Kinase panel; conditions: Compound concentration 1.0 uM, tested as the 2H-labelled form
[17] = biological target: Tyrosine-protein kinase JAK1 (Homo sapiens) (UniProt P23458); assay: JAK1(h) Kinase panel; conditions: Compound concentration 1.0 uM, tested as the 2H-labelled form
[18] = biological target: Mitogen-activated protein kinase 9 (Homo sapiens) (UniProt P45984); assay: JNK2alpha2(h) Kinase panel; conditions: Compound concentration 1.0 uM, tested as the 2H-labelled form
Chain of Mitogen-activated protein kinase 9 (Homo sapiens) (P45984 whole entry, looked up): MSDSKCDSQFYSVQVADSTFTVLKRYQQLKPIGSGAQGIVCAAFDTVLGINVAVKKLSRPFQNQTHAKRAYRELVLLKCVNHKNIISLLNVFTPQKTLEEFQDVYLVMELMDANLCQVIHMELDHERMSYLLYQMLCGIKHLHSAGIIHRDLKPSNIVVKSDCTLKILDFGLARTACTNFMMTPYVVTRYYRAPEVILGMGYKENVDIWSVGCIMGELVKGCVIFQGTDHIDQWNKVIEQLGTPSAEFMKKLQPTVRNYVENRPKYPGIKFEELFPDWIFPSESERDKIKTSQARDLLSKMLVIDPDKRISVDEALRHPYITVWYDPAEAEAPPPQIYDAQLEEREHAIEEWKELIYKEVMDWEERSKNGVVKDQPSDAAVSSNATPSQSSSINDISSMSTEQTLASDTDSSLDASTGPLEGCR

[19] = biological target: Dual specificity mitogen-activated protein kinase kinase 2 (Homo sapiens) (UniProt P36507); assay: MEK2(h) Kinase panel; conditions: Compound concentration 1.0 uM, tested as the 2H-labelled form
[20] = biological target: MAP/microtubule affinity-regulating kinase 4 (Homo sapiens) (UniProt Q96L34); assay: MARK4(h) Kinase panel; conditions: Compound concentration 1.0 uM, tested as the 2H-labelled form
[21] = biological target: Dual specificity mitogen-activated protein kinase kinase 3 (Homo sapiens) (UniProt P46734); assay: MKK3(h) Kinase panel; conditions: Compound concentration 1.0 uM, tested as the 2H-labelled form
[22] = biological target: Myosin light chain kinase (Homo sapiens) (UniProt Q32MK0); assay: MLCK(h) Kinase panel; conditions: Compound concentration 1.0 uM, tested as the 2H-labelled form
Chain of Myosin light chain kinase (Homo sapiens) (Q32MK0 whole entry): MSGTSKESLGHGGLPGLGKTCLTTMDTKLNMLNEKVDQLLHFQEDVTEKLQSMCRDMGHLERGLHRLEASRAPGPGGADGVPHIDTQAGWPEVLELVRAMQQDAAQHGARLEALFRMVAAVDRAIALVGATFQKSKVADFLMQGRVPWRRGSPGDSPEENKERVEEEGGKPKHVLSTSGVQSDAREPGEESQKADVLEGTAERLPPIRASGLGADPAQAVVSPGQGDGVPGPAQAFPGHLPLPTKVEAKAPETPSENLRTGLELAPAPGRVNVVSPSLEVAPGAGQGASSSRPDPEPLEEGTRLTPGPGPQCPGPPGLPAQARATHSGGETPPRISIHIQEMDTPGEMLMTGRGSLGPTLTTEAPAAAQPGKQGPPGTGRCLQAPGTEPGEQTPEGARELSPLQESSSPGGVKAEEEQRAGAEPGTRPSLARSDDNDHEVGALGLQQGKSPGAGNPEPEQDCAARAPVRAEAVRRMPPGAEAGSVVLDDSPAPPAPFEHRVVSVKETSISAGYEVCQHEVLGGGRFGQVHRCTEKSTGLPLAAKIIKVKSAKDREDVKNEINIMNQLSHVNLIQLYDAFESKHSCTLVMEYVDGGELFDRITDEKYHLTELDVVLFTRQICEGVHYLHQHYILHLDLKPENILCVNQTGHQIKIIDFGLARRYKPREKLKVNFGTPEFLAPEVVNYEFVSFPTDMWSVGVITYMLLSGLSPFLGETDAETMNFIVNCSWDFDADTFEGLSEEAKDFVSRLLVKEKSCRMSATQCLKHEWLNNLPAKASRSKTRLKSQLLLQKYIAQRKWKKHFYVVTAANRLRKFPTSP

[23] = biological target: Mitogen-activated protein kinase kinase kinase 11 (Homo sapiens) (UniProt Q16584); assay: MLK3(h) Kinase panel; conditions: Compound concentration 1.0 uM, tested as the 2H-labelled form
[24] = biological target: Serine/threonine-protein kinase 3 (Homo sapiens) (UniProt Q13188); assay: MST2(h) Kinase panel; conditions: Compound concentration 1.0 uM, tested as the 2H-labelled form
[25] = biological target: NUAK family SNF1-like kinase 2 (Homo sapiens) (UniProt Q9H093); assay: NUAK2(h) Kinase panel; conditions: Compound concentration 1.0 uM, tested as the 2H-labelled form
[26] = biological target: Serine/threonine-protein kinase PAK 4 (Homo sapiens) (UniProt O96013); assay: PAK4(h) Kinase panel; conditions: Compound concentration 1.0 uM, tested as the 2H-labelled form
[27] = biological target: [Pyruvate dehydrogenase (acetyl-transferring)] kinase isozyme 4, mitochondrial (Homo sapiens) (UniProt Q16654); assay: PDHK4(h) Kinase panel; conditions: Compound concentration 1.0 uM, tested as the 2H-labelled form
[28] = biological target: cAMP-dependent protein kinase catalytic subunit alpha (Homo sapiens) (UniProt P17612); assay: PKA(h) Kinase panel; conditions: Compound concentration 1.0 uM, tested as the 2H-labelled form
[29] = biological target: RAC-alpha serine/threonine-protein kinase (Homo sapiens) (UniProt P31749); assay: PKBalpha (h) Kinase panel; conditions: Compound concentration 1.0 uM, tested as the 2H-labelled form
[30] = biological target: RAC-beta serine/threonine-protein kinase (Homo sapiens) (UniProt P31751); assay: PKBbeta (h) Kinase panel; conditions: Compound concentration 1.0 uM, tested as the 2H-labelled form
[31] = biological target: Protein kinase C iota type (Homo sapiens) (UniProt P41743); assay: PKCiota (h) Kinase panel; conditions: Compound concentration 1.0 uM, tested as the 2H-labelled form
Chain of Protein kinase C iota type (Homo sapiens) (P41743 whole entry): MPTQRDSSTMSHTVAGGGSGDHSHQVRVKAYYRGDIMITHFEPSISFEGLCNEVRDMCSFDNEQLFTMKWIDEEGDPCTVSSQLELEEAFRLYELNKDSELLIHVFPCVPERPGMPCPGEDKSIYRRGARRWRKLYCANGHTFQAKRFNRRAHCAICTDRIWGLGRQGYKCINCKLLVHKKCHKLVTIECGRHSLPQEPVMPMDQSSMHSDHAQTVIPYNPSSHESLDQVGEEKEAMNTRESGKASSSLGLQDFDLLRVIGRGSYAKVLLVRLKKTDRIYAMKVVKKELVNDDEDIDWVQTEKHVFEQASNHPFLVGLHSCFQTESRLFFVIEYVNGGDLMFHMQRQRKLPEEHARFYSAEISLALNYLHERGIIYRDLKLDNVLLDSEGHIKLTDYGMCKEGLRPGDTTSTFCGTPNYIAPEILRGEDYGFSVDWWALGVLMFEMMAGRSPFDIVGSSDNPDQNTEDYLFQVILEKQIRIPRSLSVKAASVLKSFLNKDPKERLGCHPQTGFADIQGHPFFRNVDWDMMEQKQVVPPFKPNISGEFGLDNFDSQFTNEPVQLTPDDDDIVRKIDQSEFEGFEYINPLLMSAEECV

[32] = biological target: Receptor-interacting serine/threonine-protein kinase 1 (Homo sapiens) (UniProt Q13546); assay: RIPK1(h) Kinase panel; conditions: Compound concentration 1.0 uM, tested as the 2H-labelled form
[33] = biological target: Ribosomal protein S6 kinase alpha-2 (Homo sapiens) (UniProt Q15349); assay: Rsk3(h) Kinase panel; conditions: Compound concentration 1.0 uM, tested as the 2H-labelled form
[34] = biological target: Mitogen-activated protein kinase 11 (Homo sapiens, UniProt Q15759); assay: SAPK2b(h) Kinase panel; conditions: Compound concentration 1.0 uM, tested as the 2H-labelled form
[35] = biological target: Mitogen-activated protein kinase 12 (Homo sapiens) (UniProt P53778); assay: SAPK3(h) Kinase panel; conditions: Compound concentration 1.0 uM, tested as the 2H-labelled form
[36] = biological target: Serine/threonine-protein kinase Sgk1 (Homo sapiens) (UniProt O00141); assay: SGK(h) Kinase panel; conditions: Compound concentration 1.0 uM, tested as the 2H-labelled form
Chain of Serine/threonine-protein kinase Sgk1 (Homo sapiens) (O00141 whole entry): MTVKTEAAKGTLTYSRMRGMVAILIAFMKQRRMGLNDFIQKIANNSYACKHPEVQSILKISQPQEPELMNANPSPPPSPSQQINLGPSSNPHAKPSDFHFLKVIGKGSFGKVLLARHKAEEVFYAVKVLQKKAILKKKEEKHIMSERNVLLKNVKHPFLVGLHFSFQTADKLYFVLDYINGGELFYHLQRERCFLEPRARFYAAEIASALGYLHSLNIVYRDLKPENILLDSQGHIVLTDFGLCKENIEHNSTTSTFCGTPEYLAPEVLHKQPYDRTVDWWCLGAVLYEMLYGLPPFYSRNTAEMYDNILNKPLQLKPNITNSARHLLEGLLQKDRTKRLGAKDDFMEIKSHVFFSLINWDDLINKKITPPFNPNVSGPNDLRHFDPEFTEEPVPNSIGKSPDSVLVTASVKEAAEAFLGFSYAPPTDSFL

[37] = biological target: Serine/threonine-protein kinase Sgk3 (Homo sapiens) (UniProt Q96BR1); assay: SGK3(h) Kinase panel; conditions: Compound concentration 1.0 uM, tested as the 2H-labelled form
[38] = biological target: Serine/threonine-protein kinase 16 (Homo sapiens) (UniProt O75716); assay: STK16(h) Kinase panel; conditions: Compound concentration 1.0 uM, tested as the 2H-labelled form
[39] = biological target: STE20/SPS1-related proline-alanine-rich protein kinase (Homo sapiens) (UniProt Q9UEW8); assay: STK39(h) Kinase panel; conditions: Compound concentration 1.0 uM, tested as the 2H-labelled form
[40] = biological target: TGF-beta receptor type-1 (Homo sapiens) (UniProt P36897); assay: TGFBR1(h) Kinase panel; conditions: Compound concentration 1.0 uM, tested as the 2H-labelled form
[41] = biological target: Tribbles homolog 2 (Homo sapiens) (UniProt Q92519); assay: TRB2(h) Kinase panel; conditions: Compound concentration 1.0 uM, tested as the 2H-labelled form
Chain of Tribbles homolog 2 (Homo sapiens) (Q92519 whole entry): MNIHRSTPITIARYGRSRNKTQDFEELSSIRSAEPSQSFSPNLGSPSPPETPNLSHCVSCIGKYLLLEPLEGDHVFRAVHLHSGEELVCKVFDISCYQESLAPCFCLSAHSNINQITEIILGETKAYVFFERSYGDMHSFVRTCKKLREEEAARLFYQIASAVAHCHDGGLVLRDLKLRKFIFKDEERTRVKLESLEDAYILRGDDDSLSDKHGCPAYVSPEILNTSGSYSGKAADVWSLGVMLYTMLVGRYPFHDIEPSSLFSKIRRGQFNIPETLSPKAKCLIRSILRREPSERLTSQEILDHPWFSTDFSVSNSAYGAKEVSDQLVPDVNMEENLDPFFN

[42] = biological target: Testis-specific serine/threonine-protein kinase 3 (Homo sapiens) (UniProt Q96PN8); assay: TSSK3(h) Kinase panel; conditions: Compound concentration 1.0 uM, tested as the 2H-labelled form
Chain of Testis-specific serine/threonine-protein kinase 3 (Homo sapiens) (Q96PN8 whole entry): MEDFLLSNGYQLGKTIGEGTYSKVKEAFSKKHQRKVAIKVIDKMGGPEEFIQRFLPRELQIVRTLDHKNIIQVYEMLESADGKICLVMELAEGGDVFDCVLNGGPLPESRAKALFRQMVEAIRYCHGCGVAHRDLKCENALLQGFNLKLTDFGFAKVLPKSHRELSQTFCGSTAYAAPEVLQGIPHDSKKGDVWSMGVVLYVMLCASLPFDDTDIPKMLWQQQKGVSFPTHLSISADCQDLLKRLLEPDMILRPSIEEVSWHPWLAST

[43] = biological target: Wee1-like protein kinase 2 (Homo sapiens) (UniProt P0C1S8); assay: Wee1B(h) Kinase panel; conditions: Compound concentration 1.0 uM, tested as the 2H-labelled form
[44] = biological target: Tyrosine-protein kinase ZAP-70 (Homo sapiens) (UniProt P43403); assay: ZAP-70(h) Kinase panel; conditions: Compound concentration 1.0 uM, tested as the 2H-labelled form
[45] = biological target: Serine/threonine-protein kinase ATR (Homo sapiens) (UniProt Q13535); assay: ATR/ATRIP(h) Kinase panel; conditions: Compound concentration 1.0 uM, tested as the 2H-labelled form
[46] = biological target: 5-hydroxytryptamine receptor 1A (Homo sapiens) (UniProt P08908); conditions: Compound concentration 10.0 uM, tested as the 2H-labelled form
[47] = biological target: 5-hydroxytryptamine receptor 2A (Homo sapiens) (UniProt P28223); conditions: Compound concentration 10.0 uM, tested as the 2H-labelled form
D(3) dopamine receptor = D(3) dopamine receptor (Homo sapiens, UniProt P35462); conditions: Compound concentration 10.0 uM, tested as the 2H-labelled form
[48] = biological target: Mu-type opioid receptor (Homo sapiens) (UniProt P35372); conditions: Compound concentration 10.0 uM, tested as the 2H-labelled form
[49] = biological target: Alpha-2A adrenergic receptor (Homo sapiens) (UniProt P08913); conditions: Compound concentration 10.0 uM, tested as the 2H-labelled form
[50] = biological target: 3-phosphoinositide-dependent protein kinase 1 (Homo sapiens) (UniProt O15530); assay: PDK1(h) Kinase panel; conditions: Compound concentration 1.0 uM, tested as the 2H-labelled form
Chain of 3-phosphoinositide-dependent protein kinase 1 (Homo sapiens) (O15530 whole entry, looked up): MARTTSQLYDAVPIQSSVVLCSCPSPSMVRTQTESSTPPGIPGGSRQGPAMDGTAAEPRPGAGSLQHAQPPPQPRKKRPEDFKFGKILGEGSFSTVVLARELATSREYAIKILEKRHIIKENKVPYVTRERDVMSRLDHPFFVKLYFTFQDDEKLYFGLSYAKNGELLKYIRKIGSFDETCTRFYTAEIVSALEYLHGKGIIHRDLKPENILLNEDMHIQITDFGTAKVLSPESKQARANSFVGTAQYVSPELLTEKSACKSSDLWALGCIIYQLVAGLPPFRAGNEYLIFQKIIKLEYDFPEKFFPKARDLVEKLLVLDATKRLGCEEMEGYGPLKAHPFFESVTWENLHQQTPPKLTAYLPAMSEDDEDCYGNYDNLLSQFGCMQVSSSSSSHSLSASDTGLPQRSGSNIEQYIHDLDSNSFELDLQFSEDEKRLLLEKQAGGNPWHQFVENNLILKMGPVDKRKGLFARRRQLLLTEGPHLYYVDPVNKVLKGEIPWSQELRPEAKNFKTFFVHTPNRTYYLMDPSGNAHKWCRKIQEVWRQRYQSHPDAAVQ

inhibition [1]: -5%
inhibition [2]: 0%
inhibition [3]: -8%
inhibition [4]: 20%
inhibition [5]: -3%
inhibition [6]: 9%
inhibition [7]: 12%
inhibition [8]: 11%
inhibition [9]: 9%
inhibition (Homo sapiens): 2%
inhibition [10]: 14%
inhibition [11]: 1%
inhibition [12]: 7%
inhibition [13]: 3%
inhibition [14]: 21%
inhibition [15]: 0%
inhibition [16]: -4%
inhibition [17]: -2%
inhibition [18]: -2%
inhibition [19]: 4%
inhibition [20]: 4%
inhibition [21]: 7%
inhibition [22]: 19%
inhibition [23]: 5%
inhibition [24]: 9%
inhibition [25]: -1%
inhibition [26]: -5%
inhibition [27]: -7%
inhibition [28]: 16%
inhibition [29]: 2%
inhibition [30]: 0%
inhibition [31]: -2%
inhibition [32]: 5%
inhibition [33]: -7%
inhibition [34]: -3%
inhibition [35]: 28%
inhibition [36]: 11%
inhibition [37]: 4%
inhibition [38]: 8%
inhibition [39]: 11%
inhibition [40]: 43%
inhibition [41]: -2%
inhibition [42]: 2%
inhibition [43]: -1%
inhibition [44]: 12%
inhibition [45]: 16%
inhibition [46]: 1.3%
inhibition [47]: 16.5%
inhibition (D(3) dopamine receptor): -0.66%
inhibition [48]: -6.9%
inhibition [49]: 15.4%
inhibition [50]: 9%
SMILES: CC1(C)Cn2nc(-c3ccc(F)cn3)c(-c3ccnc4[nH]ncc34)c2CO1
